Measurements published in patent publication US20100093692A1, “PIPERIDINYL-PIPERIDINE AND PIPERAZINYL-PIPERIDINE FOR USE IN THE TREATMENT OF DIABETES OR PAIN” (Schering Corporation Sechering-Plough Corporation, priority 2007, published 2010).
Structures can show the parent of a compound that is named as a salt.

How the values were obtained:
H3 receptors = target: T1, H3 receptors (Cavia porcellus, UniProt Q9JI35); assay: Guinea pig H3 receptor binding assay; settings: guinea pig brain membranes; [3H]R-α-methyl histamine or [3H]Nα-methyl histamine; range stated for a group of compounds
T1 construct: The source of the H3 receptors in this experiment was guinea pig brain; from tissue; host or cells: guinea pig brain membranes
Description: The source of the H3 receptors in this experiment was guinea pig brain obtained from animals weighing 400-600 g. The brain tissue was homogenized with a solution of 50 mM Tris, pH 7.5. The final concentration of tissue in the homogenization buffer was 10% w/v. The homogenates were centrifuged at 1,000×g for 10 minutes in order to remove clumps of tissue and debris. The resulting supernatants were then centrifuged at 50,000×g for 20 minutes in order to sediment the membranes, which were then washed three times in homogenization buffer (50,000×g for 20 minutes each). The membranes were frozen and stored at −70° C. until needed.
All compounds to be tested were dissolved in DMSO and then diluted into the binding buffer (50 mM Tris, pH 7.5) such that the final concentration was 2 μg/mL with 0.1% DMSO. Membranes were then added (400 μg of protein) to the reaction tubes. The reaction was started by the addition of 3 nM [^3H]R-α-methyl histamine (8.8 Ci/mmol) or 3 nM [^3H]N^α-methyl histamine (80 Ci/mmol) and continued under incubation at 30° C. for 30 minutes. Bound ligand was separated from unbound ligand by filtration, and the amount of radioactive ligand bound to the membranes was quantitated by liquid scintillation spectrometry. All incubations were performed in duplicate and the standard error was always less than 10%. Compounds that inhibited more than 70% of the specific binding of radioactive ligand to the receptor were serially diluted to determine a Ki (nM).

[1] = test system: STZ-induced type 2 diabetic mice; assay: In vivo effect on glucose levels in diabetic mice (western diet + low dose STZ); set-up: species or system mouse; settings: 10 mg/kg/day in diet, four weeks; relative to control mice and mice treated with rosiglitazone (5 mg/kg/day in diet)
Description: Five-week-old male ICR mice were purchased from Taconic Farm (Germantown, N.Y.) and placed on a “western diet” containing 45% (kcal) fat from lard and 0.12% (w/w) cholesterol. After 3 weeks of feeding, the mice were injected once with low dose streptozocin (STZ, ip 80 mg/kg) to induce partial insulin deficiency. […] The diabetic mice were then placed in one of three groups: (1) a non-treated control group, (2) a group treated with rosiglitazone (5 mg/kg/day in diet); or (3) a group treated with Compound 446 (10/mg/kg/day in diet). All animals were treated for four weeks.

[2] = test system: diabetic Goto-Kakizaki rats; assay: In vivo effect on glucose levels in diabetic Goto-Kakizaki rats; set-up: species or system rat; settings: 10 mg/kg/day in food chow, one week; untreated rats 34 mg/dl
Description: Adult, diabetic, Goto-Kakizaki rats (14 weeks old) were tested for non-fasting glucose levels using a glucometer. Rats with glucose levels between 130 and 370 mg/dl were randomized into treatment (N=10) and control (N=10) groups. Animals in the treatment group were administered Compound 446 in their food chow at a dose of 10 mg/kg/day. After one week of treatment, blood was collected via tail snip and the non-fasting glucose level was measured using a glucometer.

[3] = test system: STZ-DIO Sprague-Dawley rats (T2DM); assay: In vivo effect on glucose and HbA1c in STZ-DIO diabetic rats; set-up: species or system rat; settings: two weeks
Description: Seventy male DIO Sprague-Dawley rats were fed HFD (45% Kcal fat) for 3 months from weaning, and were given streptozotocin (STZ) intraperitoneally at 25 mg/kg to induce type 2 diabetes (T2DM). Forty four T2DM rats were chosen for the study two weeks after STZ injection (n=11 per group, with body weights between 632 and 838 g, non-fasting glucose between 226 and 426 mg/dl and HbA1c between 8.7% and 10.9%) and were given ad libitum access to pre-weighed 45% fat (kcal) HFD or Compound 287 (1.4, 2.9 mg/g in HFD) for two weeks. Body weight, non-fasting glucose and food intake were monitored daily. Body composition and HbA1c levels were monitored before and after the two-week study by the whole body magnetic resonance analyzer and Cholestech GDX analyzer (Hayward, Calif.), respectively. The STZ-DIO rats had elevated non-fasting glucose and HbA1c levels (non-fasting glucose were between 226 and 426 mg/dl; and HbA1c were between 8.7% and 10.9%) two weeks after STZ injection. The low dose of STZ caused a 48% reduction of plasma insulin levels, which was not sufficient to cause hyperglycemia in rats fed with chow diet. In contrast, this level of plasma insulin induced hyperglycemia in the face of insulin resistance induced by the HFD. […] The control STZ-DIO rats maintained non-fasting glucose levels above […] (+12 mg/dl), which led to a significant 0.96% increase in HbA1c over 14 days.

[4] = target: T2, human histamine H3 receptor (Homo sapiens, UniProt Q9Y5N1); assay: Human H3 receptor binding assay; settings: HEK-293 membranes expressing human H3; 1 nM [3H]N-α-methylhistamine; n=4
T2 construct: The full-length human histamine H3 receptor was cloned by PCR; expressed in transfected cells
Description: The full-length human histamine H3 receptor was cloned by PCR from a human thalamus cDNA library, with primers derived from a public database, and inserted into the CMV promoter-driven expression vector pcDNA-3.1 (Invitrogen). HEK-293 human embryonic kidney cells (ATCC) were transfected with H3 receptor plasmid and stably expressing cells were selected with G-418. Cells were grown in Dulbecco's modified Eagle's medium/10% fetal calf serum containing high glucose, 25 mM Hepes, penicillin (100 U/ml), streptomycin (100 ug/ml), 2 mM glutamine, and 0.5 mg G-418/ml at 37° C. in a humidified atmosphere of 5% CO2. For membrane preparations, cells were harvested using aspirating media, replacing it with 5 mM EDTA/0.02% trypsin/Hank's balanced salt solution, followed by incubation at 37° C. for 5 to 10 minutes. […] Nonspecific binding was determined in the presence of 10^-5 M thioperamide. After a 30 minute incubation at 30° C., assay mixtures were filtered through 0.3% polyethylenimine-soaked GF/B glass fiber filters, which were then rinsed thrice with buffer, dried, impregnated with Meltilex wax scintillant, and counted. IC50 values were determined from curves fit to the data using a non-linear, least-squares, curve-fitting program and Ki values were determined using the method of Cheng and Prusoff.

T1 sequence (Q9JI35 whole entry): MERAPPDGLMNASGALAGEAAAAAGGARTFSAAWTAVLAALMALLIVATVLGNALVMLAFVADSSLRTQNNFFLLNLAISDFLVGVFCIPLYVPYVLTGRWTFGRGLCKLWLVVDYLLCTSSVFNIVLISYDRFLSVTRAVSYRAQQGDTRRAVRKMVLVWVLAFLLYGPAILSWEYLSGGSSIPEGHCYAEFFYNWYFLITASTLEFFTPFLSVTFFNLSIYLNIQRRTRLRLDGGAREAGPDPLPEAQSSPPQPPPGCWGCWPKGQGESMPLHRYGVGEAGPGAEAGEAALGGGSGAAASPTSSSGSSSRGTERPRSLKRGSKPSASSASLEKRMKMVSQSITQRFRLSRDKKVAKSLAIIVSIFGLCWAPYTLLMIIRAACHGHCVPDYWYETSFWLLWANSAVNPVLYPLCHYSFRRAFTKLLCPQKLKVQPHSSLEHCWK
T2 sequence (Q9Y5N1 whole entry): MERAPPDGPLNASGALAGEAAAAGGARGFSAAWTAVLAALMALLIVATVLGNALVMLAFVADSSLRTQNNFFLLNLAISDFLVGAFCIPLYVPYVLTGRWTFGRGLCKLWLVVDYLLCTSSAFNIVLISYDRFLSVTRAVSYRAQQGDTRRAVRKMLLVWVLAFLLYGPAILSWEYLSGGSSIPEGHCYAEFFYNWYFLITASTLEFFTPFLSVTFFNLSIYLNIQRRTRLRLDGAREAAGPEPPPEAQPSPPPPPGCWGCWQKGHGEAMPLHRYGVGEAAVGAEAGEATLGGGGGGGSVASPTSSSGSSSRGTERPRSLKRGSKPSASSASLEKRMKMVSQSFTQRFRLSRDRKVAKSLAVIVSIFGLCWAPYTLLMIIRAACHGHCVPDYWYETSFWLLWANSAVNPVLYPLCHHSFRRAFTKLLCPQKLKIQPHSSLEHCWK

Ki (H3 receptors) [nM] | SMILES | also measured
0.83 to 16 | CO/N=C(\c1ccccn1)C1CCN(C(=O)C2CCN(Cc3ccnc(N)c3)CC2)CC1 [Compound 33] | –
0.83 to 16 | CO/N=C(/c1ccccn1)C1CCN(C(=O)C2CCN([C@H](C)c3ccnc(N)c3)CC2)CC1 [Compound 55] | –
– | CON=C(CC1CCN(C(=O)C2CCN(Cc3ccnc(N)c3)CC2)CC1)c1ccccn1 (as salt: maleate) [Compound 117] | melting point: 160 to 163 °C
0.83 to 16 | CO/N=C(/c1ccc(Cl)cc1)C1CCN(C(=O)C2CCN(Cc3ccncc3)CC2)CC1 [Compound 273] | –
0.83 to 16 | CO/N=C(/c1ccccn1)C1CCN(C(=O)C2CCN([C@@H](C)c3ccnc(N)c3)CC2)CC1 [Compound 54] | –
0.83 to 16 | Nc1cc(CN2CCC(C(=O)N3CCC(C(=O)c4ccccn4)CC3)CC2)ccn1 [Compound 30] | –
0.83 to 16 | CO/N=C(/c1ccc(Cl)cc1)C1CCN(C(=O)C2CCN(Cc3ccnc(N)c3)CC2)CC1 [Compound 225] | –
0.83 to 16 | CON=C(c1ccccn1)C1CCN(C(=O)C2CCN(Cc3ccnc(N)c3)CC2)CC1 [Compound 31] | –
– | CO/N=C(/c1ccccn1)C1CCN(C(=O)C2(F)CCN(Cc3ccnc(N)c3)CC2)CC1 [Compound 446] | HbA1C levels [1]: significantly reduced; non-fasting glucose levels [1]: significantly reduced; average reduction in non-fasting glucose levels [2]: 81 mg/dL
0.83 to 16 | CO/N=C(\c1ccccn1)C1CCN(C(=O)C2CCN([C@@H](C)c3ccnc(N)c3)CC2)CC1 [Compound 56] | –
– | CO/N=C(/c1ccccn1)C1CCN(C(=O)C2CCN(Cc3cnc(N)nc3)CC2)CC1 [Compound 287] | decrease in HbA1c level ([3]; 68 mg/kg/day, 2.9 mg/g in HFD, control 0.96% increase): 0.6%; change in non-fasting glucose ([3]; 68 mg/kg/day, 2.9 mg/g in HFD, control +12 mg/dl): -43 mg/dL; HbA1c levels over the two week study period ([3]; 1.4, 2.9 mg/g in HFD): dose-dependent reduction; Ki [4]: 25 ± 4 nM
0.83 to 16 | Nc1cc(CN2CCC(C(=O)N3CCC(C(=NO)c4ccccn4)CC3)CC2)ccn1 [Compound 237] | –
0.83 to 16 | CO/N=C(/c1ccccn1)C1CCN(C(=O)C2CCN(Cc3ccnc(N)c3)CC2)CC1 [Compound 32] | –
0.83 to 16 | CON=C(c1ccc(Cl)cc1)C1CCN(C(=O)C2CCN(Cc3ccnc(N)c3)CC2)CC1 [Compound 280] | –
